The record followed here is patent US5434295A (priority 1994, dated 1995).

pKi: −log10 of the molar value. Entries after “also recorded” stand apart in the source; their conditions may differ. Like-named read-outs stand apart in the source and are kept apart here.

The subject of assay [1] is NMDA-induced toxicity in primary cerebral cortical cell cultures. Put plainly: Protection of cortical neurons in culture from NMDA-induced toxicity. It counts as cell-based. The settings on record: Rattus norvegicus, NMDA 1000 μM; for inhibition at 10 µM: 10 μM compound. Here is the method:
Blockage of NMDA toxicity in tissue culture: Neurons can be grown in culture and survive for several weeks. […] The ability of various compounds to prevent the morphological and metabolic changes induced by NMDA is considered a measure of their neuroprotective activity in culture.
The neuroprotective effects of the compounds of the invention were tested on neurons exposed to various excitotoxins in culture. The compounds tested included HU-259, HU-260, HU-270 and HU-271, which were all shown to have NMDA antagonist properties in mice (Example 13).
The test drugs were examined for their ability to protect neurons in culture from toxic effects of agonists of the different glutamate receptor subtypes (agonists of ionotropic and/or metabotropic glutamate receptors), e.g. NMDA, AMPA, kainate and quisqualate. The culture conditions and assay conditions were all performed as described in Eshhar et al. (NeuroReport 5, No. 3, 1993). In brief, primary cerebral cortical cell cultures were prepared from 18-20 day old rat fetuses by enzymatic dissociation. Resulting cell suspensions were plated on confluent cortical glial cell feder layer (prepared 2 weeks earlier by a similar method). Neurons were grown in MEM media containing 0.6% glucose, FUDR/Uridine mixture and N2 supplement (insulin, progesterone, putrescine, selenium and transferrin). Cells at 10 days in culture were exposed to the various toxins either alone, or in the presence of the tested compounds. All exposures were carried out at 37° C. for 20-24 hours before assessing neuronal cell damage and neuroprotectant activity. Cell viability was determined morphologically following neuron specific enolase immunostaining of cells using the ABC biotin-avidin complex method, and determined quantitatively by measuring the extent of mitochondrial activity in living cells using the XTT-based assay. XTT is reduced by mitochondrial dehydrogenase to a soluble colored formazan. The density of color formation (O.D.), which is proportional to mitochondrial activity, was measured by a plate ELISA reader. The extent of neuroprotectant activity is expressed as % of cells rescued by the drugs tested.
Neuroprotectant activity of HU-259 (10 μM)--was assessed using orphological criteria only. Morphological observations (as determined by neuron specific enolase immunostaining) clearly indicated complete neuroprotection (100%).

Assay [2] relates to MK-801 sites located at the NMDA receptor ion channel. Kind of assay: Inhibition of [3H]MK-801 binding to rat forebrain membranes. To be noted: for % inhibition of tritiated ligand binding to membranes, 3[H]-MK-801: 100 μM analogue. The source says: Binding to the NMDA receptor linked channel: Non competitive antagonists of NMDA, the primary example of which is the compound MK-801, bind to a site within the NMDA receptor channel thus preventing the activation of the receptor-channel complex and the consequent neurotoxicity. The ability of various compounds to compete with the binding of tritium labeled MK-801 to brain membranes is considered a measure of their potency as NMDA non-competitive antagonists.
The association of pinene derivatives with acetylcholine-muscarinic receptor and with MK-801 sites located at the NMDA receptor ion channel.
Inhibition of ^3 [H]MK-801 binding to rat forebrain membranes by the test HU-211 compounds was carried out as described for HU-211 in Eshhar et al., NeuroReport 5, No. 3, 1993) (Methods section). The test compounds were solubilized in a mixture of ethanol:Emulfor:water (20:3:57).

The test system of the next assay is NMDA toxicity in mice. Kind of assay: Prevention of NMDA neurotoxicity in mice (neurological scores). The class given is in vivo, mice (Balb/C). The settings on record: for maximum improvement of neurological scores: NMDA 60 mg/kg s.c., i.p. or i.v. pretreatment; for neurological scores/symptoms after NMDA toxicity: pretreated mice. An excerpt: Blockade of NMDA toxicity in mice: Subcutaneous injection of NMDA in mice results in a dose-dependent increase in the number, severity and duration of several neurological symptoms, culminating in death at the higher dose range. The symptoms include tail flicks, circling, tremor and convulsions. The ability of various compounds, when administered to mice prior to NMDA, to reduce the number and severity of these symptoms is a considered a measure of their potency in preventing NMDA behavioral toxicity in vivo.
Test drugs were administered intraperitoneally at the stipulated doses in a solution of MCT oil. Each point represents the mean scores of eight mice treated with the drug compared to the same number of control animals receiving the vehicle alone.
Test compounds were administered at a standard dose of 10 mg/kg either intraperitoneally (in MCT oil) or intravenously (in a submicronized emulsion).
Bicyclic compounds of the present invention were tested for their ability to block NMDA toxicity in mice. Balb/C mice received NMDA by subcutaneous injection at a dose of 60 mg/kg which was determined to be the LD20 dose of this substance. Thirty minutes prior to injection of the neurotoxin the animals received either (a) an intravenous injection of the test drug formulated in submicronized emulsion as described in Example 11); (b) an intraperitoneal injection of the test drug dissolved in MCT oil; (c) or the appropriate vehicle alone (control groups). The improvement rate afforded by the test drug was defined as the difference between scores of animals receiving the formulated drug and those receiving the vehicle alone. The doses tested for HU-254, HU-259 and HU-260 ranged from 5 to 30 mg/kg.
At least 6-8 mice were included per test group. The materials were tested in a masked study to preclude bias of the observer of clinical symptoms.
The behavioral scoring method (tabulated above) was used as the basic quantitative procedure for evaluating the level of NMDA or kainic acid neurotoxicity in mice. The neurological clinical status of each animal was calculated by totalling the scores of all signs that were evident throughout the study. Duration of symptoms was also taken into account.
If duration of a neurological system is up to 30 seconds, the score is s-1. Duration between 0.5-3.0 mins, the score is s. Duration longer than 3 mins, the score is s+1.

Assay [3] has as its system acetylcholine-muscarinic receptor. The class given is binding, rat. To be noted: 100 μM analogue.
In another assay the test system is hypobaric anoxia in mice. Put plainly: Survival of mice exposed to hypobaric anoxia. The class given is in vivo. The settings on record: 200 mmHg, 5 mg/kg i.p. in MCT oil, 45 min before. How it is done: Protection against hypobaric anoxia in mice: Exposure of mice to a hypobaric (200 mmHg) atmosphere reduces the amount of oxygen available to the animals and results in death within 1-2 minutes in untreated mice. Pretreatment with compounds that can counteract the effects of oxygen deprivation prolong (double or more) the survival time of mice subjected to this treatment. The increase in survival time is a measure of the potency of the compounds in counteracting anoxic damage in vivo.
Hypobaric Anoxia was used as a system for testing the neuroprotective effects of test compounds, HU-270 and HU-271. The experimental paradigm was derived from that described by Gotti and Depoortere, Congres de Circ. Cerebrale, Toulouse, 105-107 (1979). Briefly, mice in groups of 5 were placed in a chamber which was equilibrated at an atmospheric pressure of 200 mmHg (by evacuation via a vacuum pump). The mice were observed until they stopped breathing and the time was recorded for each mouse. The test compounds were administered 45 min before introducing the animals into the chamber. In all cases the experiment was performed in a masked vehicle controlled study to avoid bias on the part of the observer. Each mouse received the drug dissolved in MCT oil intraperitoneally at a dose of 5 mg/kg, or the vehicle alone (MCT oil, 5 ml/kg).

Where [4] appears, read: Cortical neurone, read-out: % of cells rescued from NMDA-induced toxicity.

Take `CCCCCCC(C)(C)c1cc(OC(C)=O)c([C@H]2C=C(C(=O)O)[C@H]3C[C@@H]2C3(C)C)c(OC(C)=O)c1` [(+)-4-[4-DMH-2,6 diacetoxyphenyl]-2-carboxy-6,6-dimethylbicyclo[3.1.1]hept-2-en]: the inhibition at 10 µM in assay [1] (morphological criteria only (neuron specific enolase immunostaining), read-out: % of cells rescued from NMDA-induced toxicity / complete neuroprotection) came to 100%. Besides, in assay [2], the “% inhibition of tritiated ligand binding to membranes, 3[H]-MK-801” value amounted to 90.0%. Moreover, in assay [2] ([3H]MK801 binding, rat forebrain membranes, representative experiment in triplicate (HU259), read-out: inhibition constant (K1)), the pKi was 5.12. Besides, in the assay on NMDA toxicity in mice, the “maximum improvement of neurological scores” value is 30-40% and the “neurological scores/symptoms after NMDA toxicity” value (“neurological scores/symptoms” below) is “improvement in neurological scores”. The “% inhibition of tritiated ligand binding to membranes, 3[H]QNB” value in assay [3] amounted to 98.0%.

Turning to `CCCCCCC(C)(C)c1cc(OC(C)=O)c([C@H]2C=C(C(=O)N(CC)CC)[C@H]3C[C@@H]2C3(C)C)c(OC(C)=O)c1` [HU-270], the inhibition at 10 µM in assay [1] (setting [4]) turned out to be 0%. In addition, the “survival of mice exposed to hypobaric anoxia” value with hypobaric anoxia in mice is “increased survival; also recorded: statistically significant increase of survival time”. Further, in the assay on NMDA toxicity in mice, the “maximum improvement of neurological scores” value is on record as 30-40% and the “neurological scores/symptoms” value is “decreased neurological symptoms”.

For the compound `CCCCCCC(C)(C)c1cc(OC(C)=O)c([C@H]2C=C(C(=O)NCCO)[C@H]3C[C@@H]2C3(C)C)c(OC(C)=O)c1` [HU-271], in assay [1] (Cortical neurone, 1 μM compound, read-out: % of cells rescued from NMDA-induced toxicity (concentration dependence)), the inhibition at 1 µM came to 25%. Further, the inhibition at 2 µM in assay [1] (Cortical neurone, 2 μM compound, read-out: % of cells rescued from NMDA-induced toxicity (concentration dependence)) stood at 27%. The inhibition at 5 µM in assay [1] (Cortical neurone, 5 μM compound, read-out: % of cells rescued from NMDA-induced toxicity (concentration dependence)) stood at 68%. In addition, the inhibition at 10 µM in assay [1] (setting [4]) was found to be 100%. Besides, the “% inhibition of tritiated ligand binding to membranes, 3[H]-MK-801” value in assay [2] came to 46.3%. Also, in the assay with hypobaric anoxia in mice, the “survival of mice exposed to hypobaric anoxia” value was “increased survival; also recorded: statistically significant increase of survival time”. Also, in the assay on NMDA toxicity in mice, the “maximum improvement of neurological scores” value is on record as 30-40% and the “neurological scores/symptoms” value is on record as “decreased neurological symptoms”. The “% inhibition of tritiated ligand binding to membranes, 3[H]QNB” value in assay [3] turned out to be 98.3%.
